Article PMC6214915, “Design of a novel cell-permeable chimeric peptide to promote wound healing” (Scientific Reports, 2018)
Converted amounts (≈) assume the structure as drawn. Peptide text beside a SMILES is read from it.

What was measured:
[1] = cited from earlier work
Text: Therefore, it was particularly interesting whether the combination of both, Tylotoin ...

HaCaT cells = assay: Cellular uptake of CF-labeled peptides into HaCaT cells (flow cytometry and confocal microscopy); format: cell-based, human; conditions: 10 µM CF-labeled peptides, 30 min, 37 °C, confocal microscopy
Protocol: Cells were seeded in a µ-slide 8-well (Ibidi) plate (HaCaT 90,000; HeLa 45,000) and grown to 70–80% confluency. Then, the cells were incubated with CF-labeled peptides in serum-free medium for the requested time at either 4 °C or 37 °C as indicated. The nuclei were stained for 10 min with 0.6 µl Hoechst 33342 nuclear dye (bisbenzimide H33342, 1 mg/ml in H2O, sterile filtered) prior to the end of peptide incubation. Finally, the solutions were removed and cells were treated for 30 s with trypan blue (150 µM in 0.1 M acetate buffer, pH 4.15) for quenching external fluorescence. After washing twice with PBS, 300 µl of FBS-containing growth medium were added to each well. Images were taken by using a Nikon Eclipse Ti confocal laser scanning microscope equipped with a 60x oil-immersion objective (N.A. 1.4, Plan APO VC, Nikon). Images were recorded with Nikon EZ-C1 software and adjusted equally with ImageJ software.
For treatment with endocytosis inhibitor, 80 µM of dynasore (in serum-free medium, Sigma-Aldrich) was added to the cells. After 1 h of incubation at 37 °C, CF-labeled peptide solution (in serum-free medium, 10 µM final) was added and incubated for further 30 min. Afterwards, the cells were handled as described above.
Cells were seeded in triplicate in a 24-well plate (HaCaT 370,000; HeLa 170,000) and grown to 70–80% confluency under normal growth conditions. […]

[2] = test system: human keratinocytes HaCaT; assay: MTT cell viability assay on HaCaT keratinocytes; format: cell-based; conditions: 24 h, 37 °C; for Effect on HaCaT cells at higher concentrations: >50 µM; for Cytotoxic effect on keratinocytes viability: 10 to 100 µM, serum-free medium, triplicate, n = 3
Protocol: Figure 2 Cytotoxic profile of peptides against human keratinocytes HaCaT. Cells were incubated with indicated concentrations of peptides at 37 °C for 24 h. Cell viability of HaCaT cells was determined by MTT assay relative to untreated cells (set to 100%). As positive control, cells were treated with 70% EtOH for 10 min. Experiments were conducted in triplicate with n = 3. Error bars represent standard deviation. (**p < 0.01; ***p < 0.001).
The toxic effect of the investigated peptides on HaCaT cells was evaluated using the [3(4,5-dimethylthiazol-2yl)2,5-diphenyltetrazolium bromide] (MTT) colorimetric method. MTT is a tetrazolium salt which is reduced to a purple colored formazan product by mitochondrial reductases, present only in metabolically active cells. Keratinocytes were seeded onto a 96-well microtiter plate at a density of 8 × 10^4 cells per well in DMEMg supplemented with 2 mM L-Gln and 2% FBS. After reaching 70–80% confluency, the medium was removed and cells were incubated at 37 °C for 24 h with peptides at different concentrations ranging from 10 to 100 µM (in serum-free medium). After 24 h of incubation, 10 µl of MTT (in PBS, 0.45 mg/ml final) were added to each well. After 4 h incubation, the supernatants were removed and the formazan crystals were dissolved by adding 100 μl of dimethyl sulfoxide (DMSO). For the positive control, cells were treated with 70% EtOH for 10 min. The absorption was measured at 570 nm and at a reference wavelength of 630 nm using Tecan infinite M200 plate reader.

Salmonella typhimurium = conditions: 6 h
Protocol: Antimicrobial activity of peptide conjugates against gram-positive and gram-negative bacteria was conducted using the p-iodonitrotetrazolium-chloride (INT) violet assay as previously described[33].
In brief, M. luteus and S. typhimurium were cultured in MH broth overnight at 37 °C while mild shaking (180 rpm). Overnight-cultured bacteria were added into fresh medium, grown to an optical density of 0.7 at 600 nm and 10 µl bacterial solution were added in triplicate to wells of a 96-well plate (BD Falcon, USA). The peptides used at various concentrations and 180 µl of MH medium were added to each corresponding well and incubated for 6 h at 37 °C. 10 µM chloramphenicol served as positive control and H20 was used as negative control. After incubation time, 10 μl of the freshly prepared INT solution (1 mg/ml in DMSO) were added to each well and incubated for further 30 min at 37 °C. The viability of bacteria relative to untreated bacteria was determined by measuring the absorption at 540 nm on a Tecan infinite M200 plate reader.

[3] = cited from earlier work; remark: listed apart in the source
Text: So far, very few studies have been conducted for the use of CPPs in the application field of human skin wound healing[12]–[14]. Thus, to our knowledge, we report for the first time on the fusion of a well-characterized cell penetrating peptide, namely sC18, to a wound healing promoting peptide sequence Tylotoin. This latter short peptide was recently identified and isolated from the skin of the salamander Tylototriton verrucosus. […] More precisely, Tylotoin ...

HeLa cells = assay: Resazurin-based cell viability assay on HeLa cells; design: species or system human; conditions: 24 h, serum-free RPMI, triplicate, n = 3
Protocol: Figure 9 The efficacy of Tylotoin-sC18* towards cancer cells. Microscopic image of HeLa cells treated for 30 min with CF-labeled Tylotoin-sC18* (10 µM, green) at 37 °C (A). Quantification of the cellular uptake of 10 µM CF-labeled peptides for 30 min at 37 °C by flow cytometry (B). Cell viability of HeLa cells after treatment for 24 h with Tylotoin-sC18*, sC18* and Tylotoin, respectively (C). Cells treated with 70% ethanol served as positive control. Data are normalized to untreated cells (100% cell viability). Experiments were performed in triplicate with n = 3. Error bars represent standard deviation. (*p < 0.05).
For a resazurin-based cell viability assay, HeLa cells were seeded onto a 96-well plate, grown to 70–80% confluency and incubated with various concentrations of peptides in serum-free RPMI growth medium for 24 h under standard growth conditions. For the positive control, cells were treated with 70% EtOH for 10 min. After washing with serum-free medium, resazurin solution (10% in serum-free media, v/v) was incubated with the cells for 1 h at 37 °C. Subsequently, cell viability was determined relative to untreated cells by measurement of the resorufin product at 595 nm (λex = 550 nm) on a Tecan infinite M200 plate reader.

Micrococcus luteus = format: cell-based, Micrococcus luteus (DSM 20030); conditions: 6 h
Protocol: HaCaT (immortalized human keratinocytes) and HeLa (human cervix carcinoma) cells were cultured in sterile 10 cm petri dishes at 37 °C in a humidified atmosphere of 5% CO2. HaCaT cells were maintained in DMEM containing 4,500 mg/l glucose (DMEMg), 2 mM L-Gln and 10% FBS (fetal bovine serum). HeLa cells were grown in RPMI 1640 supplemented with 4 mM L-Gln and 10% FBS. Bacteria used were Micrococcus luteus (DSM 20030) and Salmonella typhimurium (TA 100). Mueller Hinton (MH) broth agar plates were used for maintenance und MH broth medium was used to carry out antimicrobial activity studies.
Antimicrobial activity of peptide conjugates against gram-positive and gram-negative bacteria was conducted using the p-iodonitrotetrazolium-chloride (INT) violet assay as previously described. INT is a tetrazolium-based reagent which is converted to a pink formazan dye in the presence of metabolically active bacteria.
In brief, M. luteus and S. typhimurium were cultured in MH broth overnight at 37 °C while mild shaking (180 rpm). Overnight-cultured bacteria were added into fresh medium, grown to an optical density of 0.7 at 600 nm and 10 µl bacterial solution were added in triplicate to wells of a 96-well plate (BD Falcon, USA). […] The viability of bacteria relative to untreated bacteria was determined by measuring the absorption at 540 nm on a Tecan infinite M200 plate reader.

[4] = Circular dichroism spectroscopy (secondary structure); format: physicochemical; conditions: for Percentage of the α-helix content: phosphate buffer / Percentage of the α-helix content: 50% TFE: CD, 20 µM peptide, calculated from ellipticity at 222 nm; for Percentage of the α-helix content: phosphate buffer: 10 mM phosphate buffer pH 7.0, 20 °C; for Percentage of the α-helix content: 50% TFE: 10 mM phosphate buffer pH 7.0 with 50% TFE, 20 °C; for R-value: ratio between molar ellipticity values at 222 and 208 nm, in the presence of 50% TFE, R = 1 perfect α-helix
Protocol: Figure 1 Structural characteristics of investigated peptides. CD spectra were acquired at a peptide concentration of 20 µM in 10 mM phosphate buffer, pH 7.0 (A) and in the additional presence of 50% TFE (B). The percentage of the α-helix content was calculated from the ellipticity value at 222 nm using the following formula: (% α-helix = ((([Θ222]−3000)⁄(−36000−3000)) × 100)[47] (C). R-values represent the ratio between the molar ellipticity values at 222 and 208 nm[20] and R = 1 defined as hallmark for a perfectly built α-helix[48]. Helical wheel projections of Tylotoin-sC18* and sC18*-Tylotoin predicted by HeliQuest (D). TEXT PRINTED IN THE PICTURE: (C) Tylotoin-sC18: Percentage of the α-helix content: phosphate buffer: 12.1; Percentage of the α-helix content: 50% TFE: 46.3; R-value: 0.85 | (C) sC18-Tylotoin: Percentage of the α-helix content: phosphate buffer: 13.1; Percentage of the α-helix content: 50% TFE: 43.5; R-value: 0.87 | (C) Tylotoin-sC18*: Percentage of the α-helix content: phosphate buffer: 10.7; Percentage of the α-helix content: 50% TFE: 46.3; R-value: 0.77 | (C) sC18*-Tylotoin: Percentage of the α-helix content: phosphate buffer: 6.9; Percentage of the α-helix content: 50% TFE: 40.5; R-value: 0.74 | (C) Tylotoin: Percentage of the α-helix content: phosphate buffer: 15.6; Percentage of the α-helix content: 50% TFE: 25.0; R-value: 0.51
CD spectra were recorded from 180 nm to 270 nm in 0.5 nm intervals at 20 °C using a JASCO J-715 spectropolarimeter in an N2 atmosphere. The CD spectra were measured using a 1 mm quartz cuvette and the instrument parameters were set as follows: sensitivity, 100 mdeg; scan mode, continuous; scan speed, 50 nm/min; response time, 2 sec and bandwidth, 1.0 nm. Peptides were dissolved in 10 mM potassium phosphate buffer (pH 7.0) containing either 0 or 50% (v/v) trifluoroethanol (TFE) to a final peptide concentration of 20 µM.

For “GLRKRLRKFRNKIKEK-NH2 [sC18, cell penetrating peptide recently developed in the authors' group; control peptide]”, the Antimicrobial activity [1] is given as “moderate antimicrobial activities”, the “Intracellular distribution in keratinocytes” value (HaCaT cells) is given as “some nuclear uptake was visible” and the “Effect on HaCaT cells at higher concentrations” value [2] is given as “negatively affect the cells”.
For “KCVRQNNKRVCK-NH2 [Tylotoin, wound healing promoting peptide from skin of the salamander Tylototriton verrucosus; made as C-terminal amide without disulfide bridge, reference compound]”, the “Antimicrobial activity against S. typhimurium” value (Salmonella typhimurium; INT assay, 37 °C) is listed as “no antimicrobial activities”, the Antimicrobial activity [1] is listed as “did not show any antimicrobial activity” and the “Wound healing in a murine model” value [3] is listed as “promote wound healing similar to hEGF”. The “Cell viability of HeLa cells” value (HeLa cells) was “remained unharmed”, the “Antimicrobial activity against M. luteus” value (Micrococcus luteus; INT assay, 37 °C) was “no antimicrobial activity” and the “Percentage of the α-helix content: phosphate buffer” value (from here on “Percentage … phosphate buffer”) [4] was 15.6%. For the same compound, the “Percentage of the α-helix content: 50% TFE” value (shortened to “Percentage … 50% TFE”) [4] was 25.0%, the R-value [4] was 0.51 and the “Cytotoxic effect on keratinocytes viability” value (shortened to “Cytotoxic effect”) [2] was “no cytotoxic effect at all”. For the same compound, the “Proliferation of HaCaT cells” value [2] was “enhance the proliferation”.
In the case of `CC(C)C[C@H](NC(=O)CNC(=O)[C@H](CCCCN)NC(=O)[C@H](CS)NC(=O)[C@@H](NC(=O)[C@H](CCCNC(=N)N)NC(=O)[C@H](CCCCN)NC(=O)[C@H](CC(N)=O)NC(=O)[C@H](CC(N)=O)NC(=O)[C@H](CCC(N)=O)NC(=O)[C@H](CCCNC(=N)N)NC(=O)[C@@H](NC(=O)[C@H](CS)NC(=O)[C@@H](N)CCCCN)C(C)C)C(C)C)C(=O)N[C@@H](CCCNC(=N)N)C(=O)N[C@@H](CCCCN)C(=O)N[C@@H](CCCNC(=N)N)C(=O)N[C@@H](CC(C)C)C(=O)N[C@@H](CCCNC(=N)N)C(=O)N[C@@H](CCCCN)C(=O)N[C@@H](Cc1ccccc1)C(=O)N[C@@H](CCCNC(=N)N)C(=O)N[C@@H](CC(N)=O)C(=O)N[C@@H](CCCCN)C(N)=O` [Tylotoin-sC18*] (H-KCVRQNNKRVCKGLRKRLRKFRNK-NH2; N-terminus assumed), the MIC value (Salmonella typhimurium; murium) is reported as ~ 12.64 µM and the MIC value (Micrococcus luteus) is reported as 13.47 µM (≈ 40.8 µg/mL).
With “KCVRQNNKRVCKGLRKRLRKFRNKIKEK-NH2 [Tylotoin-sC18, chimeric peptide, CPP sC18 fused to the C-terminus of Tylotoin]” the “Percentage … phosphate buffer” value [4] was 12.1%, the “Percentage … 50% TFE” value [4] was 46.3% and the R-value [4] was 0.85. The “Cytotoxic effect” value [2] was “no cytotoxic effect at all”.
With “GLRKRLRKFRNKIKEKKCVRQNNKRVCK-NH2 [sC18-Tylotoin, chimeric peptide, CPP sC18 fused N-terminally to Tylotoin]” the “Percentage … phosphate buffer” value [4] was 13.1%, the “Percentage … 50% TFE” value [4] was 43.5% and the R-value [4] was 0.87. The “Effect on HaCaT cells at higher concentrations” value [2] was “negatively affect the cells”.
For “GLRKRLRKFRNKKCVRQNNKRVCK-NH2 [sC18*-Tylotoin, chimeric peptide, CPP sC18* fused N-terminally to Tylotoin]”, the “Percentage … phosphate buffer” value [4] was 6.9%, the “Percentage … 50% TFE” value [4] was 40.5% and the R-value [4] was 0.74. For the same compound, the “Cytotoxic effect” value [2] was “slight decrease in cell viability” and the “Difference in relative cell viability between sC18* and sC18*-Tylotoin” value [2] was “about 40%”.
